# Literature values, collected in patent EP2151445B1, “Process for the preparation of bidentate Schiff base ruthenium catalysts containing a salicylaldimine-type ligand” (Rimtec Corporation, priority 2008, dated 2010).
# Conditions: in water
row,Compound,pKb
1,O=C([O-])[O-].[Cu+2] [CuCO3],about 3.69
2,O=C([O-])[O-].[K+].[K+] [K2CO3],about 3.69
3,O=C([O-])[O-].[Li+].[Li+] [Li2CO3],about 3.69
4,O=C([O-])[O-].[Na+].[Na+] [Na2CO3],about 3.69
